For the assay, the target named is recombinant eIF4E (Homo sapiens (Human), UniProt P06730). Kind of assay: Fluorescence polarization competition assay for eIF4E binding potency. In outline: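 Competition of test compound against 20 nM EDA-m^7GDP-ATTO-550 for 75 nM recombinant eIF4E, pre-incubated 5 min, in 20 mM Tris pH 7.5, 100 mM NaCl, 1 mM DTT, 0.02% Tween-20, 1% DMSO. Equilibrated 30 min at room temperature, dark; fluorescence polarization read. IC50 from 8-point, 3-fold dilution series.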
(In general: Polarisation of emitted light reports the rotation of a fluorescent probe.)

[1] abbreviates: inhibition of eIF4E/EDA-m7GDP-ATTO-550 binding, calculated IC50 values, Table 4B, read-out: IC50.
Setting [2] is: fluorescence polarization competition, 75 nM recombinant eIF4E, 20 nM EDA-m7GDP-ATTO-550, IC50 class, read-out: elF4E FP.
The mark [3] stands for this setting: inhibition of eIF4E/EDA-m7GDP-ATTO-550 binding by 50%, Table 4B calculated values, read-out: IC50.

Read-outs that look alike come from different tables or passages of the source.

Chain of recombinant eIF4E (P06730 whole entry): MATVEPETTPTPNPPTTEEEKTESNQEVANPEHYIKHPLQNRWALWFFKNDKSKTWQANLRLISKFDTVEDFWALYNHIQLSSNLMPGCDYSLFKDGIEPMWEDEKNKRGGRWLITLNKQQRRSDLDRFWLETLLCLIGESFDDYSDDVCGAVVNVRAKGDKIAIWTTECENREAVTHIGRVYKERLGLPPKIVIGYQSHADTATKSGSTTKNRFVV

Turning to `CCN(c1ncc2nc(C)n(CC#Cc3ccc(Cl)cc3-c3ccnc4c(C(=O)NS(=O)(=O)c5cccnc5)csc34)c(=O)c2c1C#N)C1CCN([C@H]2C[C@H](OC(F)F)C2)CC1` [compound 1770], the IC50 under setting [1] was 17.5 nM.

Consider `N#Cc1ccc2ncn(CCOc3ccc(Cl)cc3-c3cccc(C(=O)O)c3)c(=O)c2c1` [compound 74], for which the IC50 runs as follows: under setting [2], 50 to 1000 nM; under setting [3], 423 nM.

For the compound `Cc1nc2cc(C(F)(F)F)cc(C#N)c2c(=O)n1CCOc1ccc(Cl)cc1-c1ncnc2c(C(=O)O)csc12` [compound 215], the IC50 under setting [2] was 50 to 1000 nM.

Turning to `Cc1cc(-c2cc(Cl)ccc2OCCn2c(C)nc3cc(Cl)c(N4CCC4)c(C#N)c3c2=O)c2scc(C(=O)O)c2n1` [compound 752], the IC50 runs as follows: under setting [2], below 50 nM; under setting [3], 27.6 nM.

Take `Cc1ccc(-c2nc(C)c3nc(C)n(CCOc4ccc(Cl)cc4-c4cc(C)nc5c(C(=O)O)csc45)c(=O)c3c2C#N)cc1` [compound 477]: the IC50 under setting [2] was below 50 nM.

As to `Cc1nc2cnc(N(C)C3CCN(C4CC(F)(F)C4)CC3)c(C#N)c2c(=O)n1CC#Cc1ccc(Cl)cc1-c1ccnc2c(C(=O)NS(=O)(=O)c3cccnc3)csc12` [compound 1831], the IC50 under setting [1] was 5 nM.

As to `Cc1cc(-c2cc(Cl)ccc2OCCn2c(C)nc3cc(C(F)(F)F)c(-c4cc(F)ccn4)c(C#N)c3c2=O)c2scc(C(=O)O)c2n1` [compound 777], the IC50 under setting [2] fell in the range of 50 to 1000 nM and the IC50 under setting [3] is 53.3 nM.

On to `Cc1nc2cnc(N(C)[C@H]3CC[C@@H](N(C)CC(F)F)CC3)c(C#N)c2c(=O)n1CC#Cc1ccc(Cl)cc1-c1ccnc2c(C(=O)O)csc12` [compound 1896], for which the IC50 under setting [1] is 12.2 nM.

With `Cc1nc2cnc(N3CCN(C)C(CF)C3)c(C#N)c2c(=O)n1CC#Cc1ccc(Cl)cc1-c1ccnc2c(C(=O)O)csc12` (centres unmarked) [compound 1459], the IC50 under setting [1] is 20.7 nM.

With `Cc1nc2cnc(N(C)C3CCN([C@H]4C[C@@H](OC(F)(F)F)C4)CC3)c(C#N)c2c(=O)n1CC#Cc1ccc(Cl)cc1-c1ccnc2c(C(=O)O)csc12` [1173a], the IC50 under setting [3] is 19.2 nM.

As for `Cc1cc(-c2cc(Cl)ccc2OCCn2c(C)nc3cc(Cl)c(NC(C)(C)C)c(C#N)c3c2=O)c2scc(C(=O)O)c2n1` [compound 956], the IC50 by setting is: under setting [2], below 50 nM; under setting [3], 16.5 nM.

Turning to `Cc1nc2cnc(N(C)C3CCN(CCC(F)(F)F)CC3)c(C#N)c2c(=O)n1CCOc1ccc(Cl)cc1-c1ccnc2c(C(=O)O)csc12` [compound 1360], under setting [1], the IC50 is 16.8 nM.

As to `CCS(=O)(=O)NC(=O)c1csc2c(-c3cc(Cl)ccc3C#CCn3c(C)nc4cnc(N(C)C5CCN(C6CC(F)(F)C6)CC5)c(C#N)c4c3=O)ccnc12` [compound 1807], the IC50 under setting [1] was 10.4 nM.

As to `Cc1nc2cccc(C#N)c2c(=O)n1CCOc1ccc(Cl)cc1-c1cccc(C(=O)O)c1` [compound 1147], the IC50 was below 50 nM under setting [2] and 44.6 nM under setting [3].

As for `Cc1nc(-c2ccccc2C(F)(F)F)c(C#N)c2c(=O)n(CCOc3ccc(Cl)cc3-c3ccnc4c(C(=O)O)csc34)c(C)nc12` [compound 1148], the IC50 under setting [2] is below 50 nM and the IC50 under setting [3] was 35.6 nM.

Consider `CCN(c1ncc2nc(C)n(CC#Cc3ccc(Cl)cc3-c3ccnc4c(C(=O)O)csc34)c(=O)c2c1C#N)C1CCN(CC(F)(F)F)CC1` [compound 1176], for which the IC50 reads like this: under setting [2], below 50 nM; under setting [3], 34.3 nM.

For `N#Cc1cc2c(=O)n(CCOc3ccc(Cl)cc3-c3cccc(C(=O)O)c3)cnc2cn1` [compound 66], the IC50 reads like this: under setting [2], 50 to 1000 nM; under setting [3], 187 nM.

Turning to `Cc1nc2cnc(N3CCN(CC(C)(C)F)CC3)c(C#N)c2c(=O)n1CCOc1ccc(Cl)cc1-c1ccnc2c(C(=O)O)csc12` [compound 1317], the IC50 under setting [1] is 33.5 nM.

Take `Cc1nc2cc(C(F)(F)F)c(CN3CCOCC3)c(C#N)c2c(=O)n1CC#Cc1ccc(Cl)cc1-c1ccnc2c(C(=O)O)csc12` [compound 617]: the IC50 was below 50 nM under setting [2] and 39.7 nM under setting [3].

`Cc1cc(-c2cc(Cl)ccc2OCCn2c(C)nc3cc(C(F)(F)F)c(CCN(C)C)c(C#N)c3c2=O)c2scc(C(=O)O)c2n1` [compound 610]: the IC50 under setting [2] was below 50 nM and the IC50 under setting [3] was 13.9 nM.

In the case of `CC#Cc1nc2c(=O)n(CCOc3ccc(Cl)cc3-c3cc(C)nc4c(C(=O)O)csc34)c(C)nc2cc1C(F)(F)F` [compound 784], the IC50 under setting [2] was below 50 nM and the IC50 under setting [3] was 13.7 nM.

On to `Cc1cc(-c2cc(Cl)ccc2OCCn2c(C)nc3cnc(-n4ccc5ccccc54)c(C#N)c3c2=O)c2scc(C(=O)O)c2n1` [compound 983], for which the IC50 by setting is: under setting [2], below 50 nM; under setting [3], 18.9 nM.

With `Cc1nc2cc(C(F)(F)Cl)cc(C#N)c2c(=O)n1CCOc1ccc(Cl)cc1-c1ccnc2c(C(=O)O)csc12` [compound 264], the IC50 runs as follows: under setting [2], below 50 nM; under setting [3], 24.6 nM.

Take `Cc1cc(-c2cc(Cl)ccc2OCCn2c(C)nc3cc(C(F)(F)F)c(C4CCCN4C)c(C#N)c3c2=O)c2scc(C(=O)O)c2n1` (centres unmarked) [compound 708]: the IC50 reads like this: under setting [2], 50 to 1000 nM; under setting [3], 87.8 nM.

Consider `Cc1cc(-c2cc(Cl)ccc2OCCn2c(C)nc3cc(Cl)c(N4CCC(F)(F)C4)c(C#N)c3c2=O)c2scc(C(=O)O)c2n1` [compound 690], for which the IC50 reads like this: under setting [2], below 50 nM; under setting [3], 5.95 nM.

Take `Cc1nc2cnc(N(C)C3CCN([C@H]4C[C@@H](OC(F)(F)F)C4)CC3)c(C#N)c2c(=O)n1CC#Cc1ccc(Cl)cc1-c1ccnc2c(C(=O)NS(=O)(=O)c3ccccn3)csc12` [compound 1611]: the IC50 under setting [1] was 3.85 nM.

On to `Cc1nc2cc(OC(F)(F)F)c(C#N)c(C#N)c2c(=O)n1CCOc1ccc(Cl)cc1-c1ccnc2c(C(=O)O)csc12` [compound 543], for which the IC50 runs as follows: under setting [2], below 50 nM; under setting [3], 38.2 nM.

On to `Cc1nc2cc(CN(C)C)c(OC(F)F)c(C#N)c2c(=O)n1CC#Cc1ccc(Cl)cc1-c1ccnc2c(C(=O)O)csc12` [compound 626], for which the IC50 is below 50 nM under setting [2] and 10.4 nM under setting [3].

On to `Cc1cc(-c2cc(Cl)ccc2OCCn2c(C)nc3cc(C(F)(F)F)c(N4CCN(C)CC4)c(C#N)c3c2=O)c2scc(C(O)C(F)(F)F)c2n1` (centres unmarked) [compound 1080], for which the IC50 is, setting by setting: under setting [2], 50 to 1000 nM; under setting [3], 105 nM.

For the compound `CC(=O)N(C)c1ncc2nc(C)n(CCOc3ccc(Cl)cc3-c3cc(C)nc4c(C(=O)O)csc34)c(=O)c2c1C#N` [compound 1053], the IC50 runs as follows: under setting [2], below 50 nM; under setting [3], 5.08 nM.

Take `Cc1nc2cc(C(=O)N(C)C)cc(C#N)c2c(=O)n1CCOc1ccc(Cl)cc1-c1ccnc2c(C(=O)O)csc12` [compound 413]: the IC50 reads like this: under setting [2], below 50 nM; under setting [3], 34.6 nM.

Consider `CC(=O)Nc1ccc(-c2cc(Cl)ccc2OCCn2cnc3cnc(C#N)cc3c2=O)cc1C(=O)O` [compound 103], for which the IC50 by setting is: under setting [2], 50 to 1000 nM; under setting [3], 747 nM.

Take `Cc1nc2c(F)ccc(C#N)c2c(=O)n1CCOc1ccc(Cl)cc1-c1ccnc2c(C(=O)O)csc12` [compound 1373]: the IC50 under setting [1] was 26.7 nM.

Regarding `Cc1nc2cc(C(F)(F)F)c(C#CCN)c(C#N)c2c(=O)n1CCOc1ccc(Cl)cc1-c1ccnc2c(C(=O)O)csc12` [compound 1260], the IC50 under setting [1] was 13 nM.

In the case of `Cc1cc(-c2cc(Cl)ccc2OCCn2c(C)nc3cc(C(F)(F)F)c(-c4cncc(C(F)(F)F)n4)nc3c2=O)c2scc(C(=O)O)c2n1` [compound 1021], the IC50 reads like this: under setting [2], below 50 nM; under setting [3], 21.1 nM.

Consider `C=S(C)(=O)c1cc(C#N)c2c(=O)n(CCOc3ccc(Cl)cc3-c3ccnc4c(C(=O)O)csc34)c(C)c(F)c2c1` (centres unmarked) [compound 274], for which the IC50 was below 50 nM under setting [2] and 18.8 nM under setting [3].

Turning to `Cc1cc(-c2cc(Cl)ccc2OCCn2c(C)nc3ccc(N4CCN(C)CC4)c(C#N)c3c2=O)c2sc(C)c(C(=O)O)c2n1` [compound 812], the IC50 runs as follows: under setting [2], below 50 nM; under setting [3], 30 nM.

On to `Cc1cc(-c2cc(Cl)ccc2OCCn2c(C)nc3cnc(C4CC4)c(C#N)c3c2=O)c2scc(C(=O)NS(C)(=O)=O)c2n1` [compound 385], for which the IC50 under setting [2] is below 50 nM and the IC50 under setting [3] was 39.5 nM.

As for `O=C(O)c1cccc(-c2cc(Cl)ccc2OCCn2cnc3nccnc3c2=O)c1` [compound 19], the IC50 is 50 to 1000 nM under setting [2] and 838 nM under setting [3].

For `Cc1cc(-c2cc(Cl)ccc2OCCn2c(C)nc3cc(C(F)(F)F)c(-c4ccnc(C)c4C)c(C#N)c3c2=O)c2scc(C(=O)O)c2n1` [compound 686], the IC50 was below 50 nM under setting [2] and 26.5 nM under setting [3].

As to `Cc1cc(-c2cc(Cl)ccc2OCCn2c(C)nc3ccc(N4CCN(C)CC4)nc3c2=O)c2scc(C(=O)O)c2n1` [compound 678], the IC50 is, setting by setting: under setting [2], 50 to 1000 nM; under setting [3], 53.8 nM.

`Cc1nc2cc(C(F)(F)F)c(CN(C)C)c(C#N)c2c(=O)n1CCOc1ccc(Cl)cc1-c1ccnc2ccsc12` [compound 2016]: the IC50 under setting [1] was 613 nM.

Regarding `Cc1cc2cc(C(F)(F)F)c(N3CCN(C)CC3)c(C#N)c2c(=O)n1CCOc1ccc(Cl)cc1-c1ccnc2c(C(=O)O)csc12` [compound 1240], the IC50 under setting [2] is below 50 nM and the IC50 under setting [1] was 15.5 nM.

For the compound `Cc1nc2cnc(N3CCN(C4(C)CC(F)(F)C4)CC3)c(C#N)c2c(=O)n1CCOc1ccc(Cl)cc1-c1ccnc2c(C(=O)O)csc12` [compound 1641], under setting [1], the IC50 is 18.9 nM.

Consider `Cc1nc2cc(C(F)(F)F)cc(C#N)c2c(=O)n1CCOc1ccc(Cl)cc1-c1ccnc2c(C(=O)O)c(C(C)C)sc12` [compound 667], for which the IC50 runs as follows: under setting [2], below 50 nM; under setting [3], 46.7 nM.

On to `Cc1nc2cc(C(F)(F)F)c(CN(C)C)c(C#N)c2c(=O)n1CCOc1cc(F)c(Cl)cc1-c1ccnc2c(C(=O)O)csc12` [compound 503], for which the IC50 by setting is: under setting [2], below 50 nM; under setting [3], 8.67 nM.

The record behind these values is US11286268B1, “EIF4E-inhibiting compounds and methods” (EFFECTOR THERAPEUTICS, INC., priority 2019, dated 2022).
